Experimental data published in ChEMBL document CHEMBL1145730, “Nodulisporic acid side-chain modifications: access to the 2", 3", 4", and 6" registers” (Bioorg Med Chem Lett, 2003).

Tested on: Pulicinae
Assay: In vitro flea activity using a membrane feeding assay wherein adult fleas ingest drug-treated bovine blood
Assay type: functional

Row | Structure (SMILES) | Activity [p.p.m.]
1 | C=C(C)[C@H]1C(=O)c2c3c(cc4c5c(n1c24)[C@@]1(C)C(CC[C@H]2[C@](C)(/C=C/CC=O)[C@@H](O)CC[C@@]21C)C5)C1=CC(C)(C)OC(C)(C)C1[C@@H]3O (stereo not given in full) | 10
2 | C=C(C)[C@H]1C(=O)c2c3c(cc4c5c(n1c24)[C@@]1(C)C(CC[C@H]2[C@](C)(C/C=C/C(=O)OC)[C@@H](O)CC[C@@]21C)C5)C1=CC(C)(C)OC(C)(C)C1[C@@H]3O (stereo not given in full) | 10
3 | C=C(C)[C@H]1C(=O)c2c3c(cc4c5c(n1c24)[C@@]1(C)C(CC[C@H]2[C@](C)(/C=C/C(=O)NC)[C@@H](O)CC[C@@]21C)C5)C1=CC(C)(C)OC(C)(C)C1[C@@H]3O (stereo not given in full) | 10
4 | C=CCN(C)C(=O)/C=C/[C@]1(C)[C@@H](O)CC[C@@]2(C)[C@H]1CCC1Cc3c(n4c5c(c6c(cc35)C3=CC(C)(C)OC(C)(C)C3[C@@H]6O)C(=O)[C@@H]4C(=C)C)[C@@]12C (stereo not given in full) | > 10
5 | C=C(C)[C@H]1C(=O)c2c3c(cc4c5c(n1c24)[C@@]1(C)C(CC[C@H]2[C@](C)(/C=C/C(=O)NCCC)[C@@H](O)CC[C@@]21C)C5)C1=CC(C)(C)OC(C)(C)C1[C@@H]3O (stereo not given in full) | > 10
6 | C=C(C)[C@H]1C(=O)c2c3c(cc4c5c(n1c24)[C@@]1(C)C(CC[C@H]2[C@](C)(/C=C/CC(=O)NCc4ccccc4)[C@@H](O)CC[C@@]21C)C5)C1=CC(C)(C)OC(C)(C)C1[C@@H]3O (stereo not given in full) | 10
7 | C=C(C)[C@H]1C(=O)c2c3c(cc4c5c(n1c24)[C@@]1(C)C(CC[C@H]2[C@](C)(/C=C/C(=O)NC(C)(C)c4ccccn4)[C@@H](O)CC[C@@]21C)C5)C1=CC(C)(C)OC(C)(C)C1[C@@H]3O (stereo not given in full) | 1
8 | C=C(C)[C@H]1C(=O)c2c3c(cc4c5c(n1c24)[C@@]1(C)C(CC[C@H]2[C@](C)(/C=C/CC(=O)N(C)CCC)[C@@H](O)CC[C@@]21C)C5)C1=CC(C)(C)OC(C)(C)C1[C@@H]3O (stereo not given in full) | 1
9 | C=C(C)[C@H]1C(=O)c2c3c(cc4c5c(n1c24)[C@@]1(C)C(CC[C@H]2[C@](C)(C/C=C/C(=O)N(C)C)[C@@H](O)CC[C@@]21C)C5)C1=CC(C)(C)OC(C)(C)C1[C@@H]3O (stereo not given in full) | 10
10 | C=C(C)[C@H]1C(=O)c2c3c(cc4c5c(n1c24)[C@@]1(C)C(CC[C@H]2[C@](C)(/C=C/CC(=O)NC(C)(C)C)[C@@H](O)CC[C@@]21C)C5)C1=CC(C)(C)OC(C)(C)C1[C@@H]3O (stereo not given in full) | 1
11 | C=C(C)[C@H]1C(=O)c2c3c(cc4c5c(n1c24)[C@@]1(C)C(CC[C@H]2[C@](C)(/C=C/CC(=O)N4CCOCC4)[C@@H](O)CC[C@@]21C)C5)C1=CC(C)(C)OC(C)(C)C1[C@@H]3O (stereo not given in full) | 1
12 | C=C(C)[C@H]1C(=O)c2c3c(cc4c5c(n1c24)[C@@]1(C)C(CC[C@H]2[C@](C)(C/C=C/C(=O)NC4CC4)[C@@H](O)CC[C@@]21C)C5)C1=CC(C)(C)OC(C)(C)C1[C@@H]3O (stereo not given in full) | > 10
13 | C=C(C)[C@H]1C(=O)c2c3c(cc4c5c(n1c24)[C@@]1(C)C(CC[C@H]2[C@](C)(/C=C/C(=O)N(C)C)[C@@H](O)CC[C@@]21C)C5)C1=CC(C)(C)OC(C)(C)C1[C@@H]3O (stereo not given in full) | > 10
14 | C=C(C)[C@H]1C(=O)c2c3c(cc4c5c(n1c24)[C@@]1(C)C(CC[C@H]2[C@](C)(/C=C/C(=O)N4CCN(c6ccccn6)CC4)[C@@H](O)CC[C@@]21C)C5)C1=CC(C)(C)OC(C)(C)C1[C@@H]3O (stereo not given in full) | 1
15 | C=C(C)[C@H]1C(=O)c2c3c(cc4c5c(n1c24)[C@@]1(C)C(CC[C@H]2[C@](C)(C/C=C/C(C)=O)[C@@H](O)CC[C@@]21C)C5)C1=CC(C)(C)OC(C)(C)C1[C@@H]3O (stereo not given in full) | 10
16 | C=C(C)[C@H]1C(=O)c2c3c(cc4c5c(n1c24)[C@@]1(C)C(CC[C@H]2[C@](C)(/C=C/CC(=O)NC4CC4)[C@@H](O)CC[C@@]21C)C5)C1=CC(C)(C)OC(C)(C)C1[C@@H]3O (stereo not given in full) | 1
17 | C=C(C)[C@H]1C(=O)c2c3c(cc4c5c(n1c24)[C@@]1(C)C(CC[C@H]2[C@](C)(/C=C/CC(=O)OC)[C@@H](O)CC[C@@]21C)C5)C1=CC(C)(C)OC(C)(C)C1[C@@H]3O (stereo not given in full) | 1
18 | C=C(C)[C@H]1C(=O)c2c3c(cc4c5c(n1c24)[C@@]1(C)C(CC[C@H]2[C@](C)(/C=C/C(=O)NCc4ccccc4)[C@@H](O)CC[C@@]21C)C5)C1=CC(C)(C)OC(C)(C)C1[C@@H]3O (stereo not given in full) | 10
19 | C=C(C)[C@H]1C(=O)c2c3c(cc4c5c(n1c24)[C@@]1(C)C(CC[C@H]2[C@](C)(/C=C/CC(C)=O)[C@@H](O)CC[C@@]21C)C5)C1=CC(C)(C)OC(C)(C)C1[C@@H]3O (stereo not given in full) | 1
20 | C=C(C)[C@H]1C(=O)c2c3c(cc4c5c(n1c24)[C@@]1(C)C(CC[C@H]2[C@](C)(/C=C/CC(=O)NCC)[C@@H](O)CC[C@@]21C)C5)C1=CC(C)(C)OC(C)(C)C1[C@@H]3O (stereo not given in full) | 10
21 | C=C(C)[C@H]1C(=O)c2c3c(cc4c5c(n1c24)[C@@]1(C)C(CC[C@H]2[C@](C)(/C=C/CC(=O)Nc4ccccc4)[C@@H](O)CC[C@@]21C)C5)C1=CC(C)(C)OC(C)(C)C1[C@@H]3O (stereo not given in full) | 1
22 | C=C(C)[C@H]1C(=O)c2c3c(cc4c5c(n1c24)[C@@]1(C)C(CC[C@H]2[C@](C)(/C=C/CC(=O)NCc4ccco4)[C@@H](O)CC[C@@]21C)C5)C1=CC(C)(C)OC(C)(C)C1[C@@H]3O (stereo not given in full) | 10
23 | C=C(C)[C@H]1C(=O)c2c3c(cc4c5c(n1c24)[C@@]1(C)C(CC[C@H]2[C@](C)(/C=C/CC(=O)N(C)C)[C@@H](O)CC[C@@]21C)C5)C1=CC(C)(C)OC(C)(C)C1[C@@H]3O (stereo not given in full) | 10
24 | C=C(C)[C@H]1C(=O)c2c3c(cc4c5c(n1c24)[C@@]1(C)C(CC[C@H]2[C@](C)(/C=C/C=C(\C)C(=O)O)[C@@H](O)CC[C@@]21C)C5)C1=CC(C)(C)OC(C)(C)C1[C@@H]3O (stereo not given in full) | 1
25 | C=C(C)[C@H]1C(=O)c2c3c(cc4c5c(n1c24)[C@@]1(C)C(CC[C@H]2[C@](C)(C/C=C/C(=O)NCC)[C@@H](O)CC[C@@]21C)C5)C1=CC(C)(C)OC(C)(C)C1[C@@H]3O (stereo not given in full) | 10
